Data: patent US8202877B2, “Aminopyrimidinamides as pesticides” (Bayer CropScience AG, priority 2009, dated 2012)

Legend:
[1] = tested on: Spodoptera litura third instar larvae; conditions: active compound concentration of 100 ppm; sweet potato leaves immersed; after 7 days
Procedure: Unless not mentioned otherwise, the test solutions were prepared as follows:
Containing as solvent: Dimethylformamide, 3 parts by weight; and as emulsifier: Polyoxyethylene alkyl phenyl ether, 1 part by weight
Test Against Tobacco Cutworm (Spodoptera Litura) Larvae
Leaves of sweet potato were immersed in the test solution at the appropriate concentration, and the leaves were dried in air. The leaves were then placed in a petri dish having a diameter of 9 cm, and ten Spodoptera litura at third instar larvae were released therein. The petri dishes were placed in a temperature-controlled chamber at 25° C. After 2 days and 4 days more sweet potato leaves were added. After 7 days, the number of dead larvae was counted to calculate the insecticidal activity. An insecticidal activity of 100% means that all larvae were killed, whereas an insecticidal activity of 0% means that no larva was killed.

[2] = logP (HCOOH), physicochemical characterization

| SMILES | insecticidal activity [1] | logP (HCOOH) [2] |
| --- | --- | --- |
| CCc1ccccc1C(=O)Nc1c(NC2CC2)ncnc1-c1ccc(OC(F)(F)F)cc1 [1-257] | 100% |  |
| CCc1ncccc1C(=O)Nc1c(NC2CC2)ncnc1-c1ccc(Cn2nc(C(F)(F)F)cc2C(F)(F)F)cc1 [1-268] | 100% |  |
| O=C(Nc1c(NC2CC2)nc(Cl)nc1-c1ccc(F)cc1)c1cccnc1CC(F)(F)F [1-325] | 100% |  |
| CCc1ncccc1C(=O)Nc1c(NC2CC2)ncnc1-c1ccc(Cn2ccc(C(F)(F)C(F)(F)F)n2)cc1 [1-266] | 100% |  |
| O=C(Nc1c(NC2CC2)ncnc1-c1ccc(Cl)cc1)c1cccnc1C1CC1 [1-236] | 100% |  |
| CCc1ncccc1C(=O)Nc1c(NC2CC2)nc(C)nc1-c1ccc(F)cc1 [1-276] |  | 0.88 |
| CCCc1ncccc1C(=O)Nc1c(NC2CC2)ncnc1-c1ccc(F)cc1F [1-245] | 100% |  |
| CCc1ncccc1C(=O)Nc1c(NC2CC2)ncnc1-c1ccc(Oc2cccc(C(F)(F)F)n2)cc1 [1-312] | 100% |  |
| CCc1ncccc1C(=O)Nc1c(NC2CC2)ncnc1-c1ccc(Cc2n[nH]c(C(F)(F)C(F)(F)C(F)(F)F)n2)cc1 [1-319] | 100% |  |
| CCc1ncccc1C(=O)Nc1c(NC2CC2)ncnc1-c1ccc(Cc2nc(C(F)(F)C(F)(F)C(F)(F)F)n(C)n2)cc1 [1-318] | 100% |  |
| CCc1ccccc1C(=O)Nc1c(NC2CC2)ncnc1-c1ccc(Cn2nc(C(F)(F)F)nc2C(F)(F)F)cc1 [1-265] | 100% |  |
| CCc1ncccc1C(=O)Nc1c(Cl)ncnc1Nc1ccc(F)cc1 [5-2] | 100% |  |
| CCc1ncccc1C(=O)Nc1c(NC2CC2)ncnc1-c1ccc(C#N)cc1 [1-133] |  | 1.10 |
| O=C(Nc1c(NC2CC2)ncnc1-c1ccc(F)cc1F)c1cccnc1CC(F)(F)F [1-254] | 100% |  |
| O=C(Nc1c(NC2CC2)ncnc1-c1ccc(F)cc1)c1ccnn1-c1ccccc1Cl [9-3] |  | 1.76 |
| CCCc1ncccc1C(=O)Nc1c(NC2CC2)ncnc1-c1ccccc1 [1-237] | 100% |  |
| O=C(Nc1c(NC2CC2)ncnc1-c1ccc(F)cc1F)c1cccnc1C1CC1 [1-240] | 100% |  |
| CCc1ncccc1C(=O)Nc1c(NC2CC2)ncnc1-c1ccc(Cn2nc(C(F)(F)C(F)(F)F)cc2C(F)(F)C(F)(F)F)cc1 [1-269] | 100% |  |
| CCc1ncccc1C(=O)Nc1c(NC2CC2)ncnc1-c1ccc(C(F)(C(F)(F)F)C(F)(F)F)cc1 [1-232] | 100% |  |
| O=C(Nc1c(NC2CC2)ncnc1-c1ccc(F)cc1)c1ccnn1-c1ccc(Cl)cc1 [9-2] |  | 2.02 |

| SMILES | insecticidal activity [1] | logP (HCOOH) [2] |
| --- | --- | --- |
| CCCc1ncccc1C(=O)Nc1c(NC2CC2)ncnc1-c1ccc(F)cc1 [1-238] | 100% |  |
| O=C(Nc1c(NC2CC2)ncnc1-c1ccc(F)cc1)c1ccnn1-c1ccc(F)cc1 [9-1] |  | 1.70 |
| O=C(Nc1c(NC2CC2)ncnc1-c1ccc(Cl)cc1)c1ccnn1-c1ccccc1Cl [9-4] |  | 2.05 |
| CCCc1ncccc1C(=O)Nc1c(NC2CC2)ncnc1-c1ccc(Cl)cc1 [1-239] | 100% |  |
| O=C(Nc1c(NC2CC2)ncnc1-c1ccc(Cn2nc(C(F)(F)F)nc2C(F)(F)F)cc1)c1cccnc1C1CC1 [1-259] | 100% |  |
| CCCc1ncccc1C(=O)Nc1c(NC2CC2)ncnc1-c1ccc(Cn2nc(C(F)(F)F)nc2C(F)(F)F)cc1 [1-264] | 100% | 1.9 |
| CCc1ccccc1C(=O)Nc1c(NC2CC2)ncnc1-c1ccc(Cn2cnc(C(F)(F)F)n2)cc1 [1-286] | 100% |  |
| CCc1ncccc1C(=O)Nc1c(NC2CC2)ncnc1-c1ccc(F)cc1C [1-180] |  | 1.10 |
| O=C(Nc1c(NC2CC2)ncnc1-c1ccc(OC(F)(F)F)cc1)c1cccnc1C1CC1 [1-243] | 100% |  |
| CCc1ncccc1C(=O)Nc1c(NC2CC2)ncnc1-c1ccc(Cn2nc(C(F)(F)C(F)(F)F)cc2C(F)(F)F)cc1 [1-247] | 100% |  |
| N#Cc1ccc(-c2ncnc(NC3CC3)c2NC(=O)c2cccnc2C2CC2)cc1 [1-242] | 100% |  |
| CCCc1ncccc1C(=O)Nc1c(NC2CC2)ncnc1-c1ccc(C#N)cc1 [1-246] | 100% |  |
| CCc1ncccc1C(=O)Nc1c(NC2CC2)ncnc1-c1ccc(Cl)cc1 [1-177, N-[4-(4-Chlorophenyl)-6-cyclopropylaminopyrimidin-5-yl]-2-ethylnicotinamide] | 100% |  |
| CCc1ncccc1C(=O)Nc1c(NC2CC2)ncnc1-c1ccc(Cl)cc1C [1-188] |  | 1.40 |
| CCc1ncccc1C(=O)Nc1c(Br)ncnc1NC1CC1 [3-3] |  | 0.84 |
| O=C(Nc1c(NC2CC2)ncnc1-c1ccc(Cl)cc1)c1cccnc1C(F)(F)C(F)(F)F [1-241] | 100% |  |
| CCc1ncccc1C(=O)Nc1c(NC2CC2)nc(C)nc1-c1ccccc1 [1-275] |  | 0.76 |
| CCc1ncccc1C(=O)Nc1c(NC2CC2)ncnc1-c1ccc(SC(F)(F)F)cc1 [1-114] |  | 1.4 |
| CCc1ncccc1C(=O)Nc1c(NC2CC2)ncnc1-c1ccc(Cn2ccc(C(F)(F)C(F)(F)C(F)(F)F)n2)cc1 [1-267] | 100% |  |
| O=C(Nc1c(NC2CC2)ncnc1-c1ccc(F)cc1)c1cccnc1C1CC1 [1-235] | 100% |  |

| SMILES | insecticidal activity [1] | logP (HCOOH) [2] |
| --- | --- | --- |
| O=C(Nc1c(NC2CC2)ncnc1-c1ccccc1)c1cccnc1C1CC1 [1-234] | 100% |  |
| CCc1ncccc1C(=O)Nc1c(NC2CC2)ncnc1-c1ccc(Oc2ncc(C(F)(F)F)cc2Cl)cc1 [1-310] | 100% |  |
| CCc1ncccc1C(=O)Nc1c(NC2CC2)ncnc1-c1ccc(Cn2nc(C(F)(F)F)nc2C(F)(F)F)cc1 [1-258] | 100% |  |
| O=C(Nc1c(NC2CC2)ncnc1-c1ccc(Cn2nc(C(F)(F)C(F)(F)F)cc2C(F)(F)F)cc1)c1cccnc1C1CC1 [1-253] | 100% |  |
| CCc1ncccc1C(=O)Nc1c(NC2CC2)ncnc1-c1ccc(Oc2ncccc2C(F)(F)F)cc1 [1-311] | 100% |  |
| CCc1ncccc1C(=O)Nc1c(NC2CC2)nc(C)nc1-c1ccc(F)cc1F [1-278] |  | 1 |
| O=C(Nc1c(NC2CC2)ncnc1-c1ccc(Cn2nc(C(F)(F)F)cc2C(F)(F)F)cc1)c1cccnc1C1CC1 [1-252] | 100% |  |
| CCc1ncccc1C(=O)Nc1c(NC2CC2)ncnc1-c1ccc(F)cc1Cl [1-139] |  | 0.79 |
| CCc1ncccc1C(=O)Nc1c(NC2CC2)ncnc1-c1ccc(Oc2nc(C(F)(F)F)cc(C(F)(F)C(F)(F)F)n2)cc1 [1-317] | 100% |  |
| O=C(Nc1c(NC2CC2)ncnc1-c1ccc(Cl)cc1)c1c(F)cccc1Cl [1-263] |  | 2.20 |
| O=C(Nc1c(NC2CC2)nc(C(F)(F)F)nc1-c1ccc(F)cc1)c1cccnc1CC(F)(F)F [1-324] | 100% |  |
| CCc1ncccc1C(=O)Nc1c(NC2CC2)nc(C(F)(F)F)nc1-c1ccc(F)cc1 [1-313] | 100% |  |
| CCc1ncccc1C(=O)Nc1c(NC2CC2)ncnc1-c1ccccc1C [1-182] |  | 0.94 |
| O=C(Nc1c(NC2CC2)ncnc1-c1ccccc1)c1cccnc1 [1-128] |  | 0.63 |
| Cc1ncccc1C(=O)Nc1c(NC2CC2)ncnc1-c1ccc(F)cc1 [1-1] |  | 0.71 |
| CCOc1ncccc1C(=O)Nc1c(NC2CC2)ncnc1-c1ccc(C#N)cc1 [1-160] |  | 1.80 |
| CCc1ncccc1C(=O)Nc1c(NC2CC2)nc(C(F)(F)F)nc1-c1ccc(F)cc1F [1-314] | 100% |  |
| CCc1ncccc1C(=O)Nc1c(NC2CC2)nc(Cl)nc1-c1ccc(F)cc1 [1-326] | 100% |  |
| CCCc1ncccc1C(=O)Nc1c(NC2CC2)ncnc1-c1ccc(Cl)cc1Cl [1-244] | 100% |  |
